Data set [1] in a line: Solubility of ambrisentan solid forms in water at 25 °C. It is filed as physicochemical. The settings on record: approximate values. The procedure: Solubility of all the salts are considerably higher compared to solubility of ambrisentan in the salt free form. Table. 1 Solubility of ambrisentan solid forms in water at 25 °C
Data set [2] in a line: pKa of the ionisable groups of ambrisentan. In kind it is physicochemical.

What is called Solubility is the concentration that dissolves in the medium under given conditions. As usually defined, the pKa is the pH at which an ionisable group is half protonated.

Counter-ions that a name gives are not always drawn. Like-named read-outs stand apart in the source and are kept apart here. Bounds are passed on as bounds.

For `COC(c1ccccc1)(c1ccccc1)[C@H](Oc1nc(C)cc(C)n1)C(=O)O` [Ambrisentan sodium salt (amorphous), ambrisentan sodium salt], the Solubility in data set [1] (sodium salt) was above 10000 µg/mL. Same read-out and setting: the result for `COC(c1ccccc1)(c1ccccc1)[C@H](Oc1nc(C)cc(C)n1)C(=O)O` [Ambrisentan sodium salt (crystalline), ambrisentan sodium salt] reads above 5000 µg/mL. As for `COC(c1ccccc1)(c1ccccc1)[C@H](Oc1nc(C)cc(C)n1)C(=O)O` [Ambrisentan phosphate salt, ambrisentan phosphate salt], in data set [1] (phosphate salt), the Solubility result is reported as “∼ 0.1 mg/ml”. On to `COC(c1ccccc1)(c1ccccc1)[C@H](Oc1nc(C)cc(C)n1)C(=O)O` [Ambrisentan (Form R), (S)-2-(4,6-dimethylpyrimidin-2-yloxy)-3-methoxy-3,3-diphenylpropanoic acid], for which the values for the pKa in data set [2] (read-out: pKa of nitrogen in pyrimidine ring) and in data set [2] (read-out: pKa of the carboxylic group) were 2.98 ± 0.3 and 0.93 ± 0.1, respectively. In addition, the Solubility entry in data set [1] is “∼ 0.05 mg/ml”. `COC(c1ccccc1)(c1ccccc1)[C@H](Oc1nc(C)cc(C)n1)C(=O)O` [Ambrisentan tert-butylammonium salt, ambrisentan tert-butylammonium salt] had a Solubility in data set [1] above 6000 µg/mL.
